Drawing on PubChem BioAssay AID1963845 (Molecular Pharmacology Branch, DTP, NCI, 2024), this text covers viability, T/C for five compounds.

A word on the viability, T/C: it is the result in the treated group divided by that in the control group, in per cent.
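Note: luminescence signal used as surrogate measure of viable cells; spheroids exposed to compounds for seven days before readout; 100% = DMSO vehicle control viability as luminescence relative to vehicle.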

For one assay, the system named is 429239-143-T-J1-PDC complex spheroid viability. Description: Anticancer human tumor 429239-143-T-J1-PDC patient-derived small cell lung carcinoma cell line growth inhibition [POLQ]. The settings on record: second compound 1 µM; first compound 0.316 µM; hits give low values. In short, it runs like this: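 PDC + HUVEC + MSC complex spheroids; POLQ inhibitors ± partner drugs; top conc. at/near clinical Cmax, else 10 microM (SN-38 1 microM), half-log dilutions; 37 degrees C, 5% CO2.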
On to `CC(C)n1c(=O)n(C)c2cnc3cc(F)c(-c4ccc(OCCCN5CCCCC5)nc4)cc3c21` + Cc1cccc(N(C)C(=O)C2C(O)CCN2c2nc(C)cc(C(F)(F)F)c2C#N)c1, for which the viability, T/C was 94.2%.
Same read-out and setting: in the case of `CCc1cc2c(N3CCc4c(cc(Cn5ccnc5)cc4-c4cn(C)nc4C(F)(F)F)C3=O)cc(C)nc2c(OC)n1` + Cc1cccc(N(C)C(=O)C2C(O)CCN2c2nc(C)cc(C(F)(F)F)c2C#N)c1 it was 91.8%; in that of `CCc1cc2c(N3CCc4c(cc(Cn5ccnc5)cc4-c4cn(C)nc4C(F)(F)F)C3=O)ccnc2c(OC)n1` + Cc1cccc(N(C)C(=O)C2C(O)CCN2c2nc(C)cc(C(F)(F)F)c2C#N)c1, 89.2%; in that of `COc1ccc([C@@H](O)c2cc(-c3ncnc4cc(N5CCOCC5)ccc34)c(F)cc2Cl)nn1` + Cc1cccc(N(C)C(=O)C2C(O)CCN2c2nc(C)cc(C(F)(F)F)c2C#N)c1, 98.7%.

The same assay, now with this note: second compound 1 µM; first compound 1 µM; hits give low values.
Take `C=CC(=O)N1CCN(c2nc(=O)n(-c3c(C)ccnc3C(C)C)c3nc(-c4c(O)cccc4F)c(F)cc23)C(C)C1` (stereo unspecified) + Cc1cccc(N(C)C(=O)C2C(O)CCN2c2nc(C)cc(C(F)(F)F)c2C#N)c1: the viability, T/C is 88.5%.
In the case of `CC(C)n1c(=O)n(C)c2cnc3cc(F)c(-c4ccc(OCCCN5CCCCC5)nc4)cc3c21` + Cc1cccc(N(C)C(=O)C2C(O)CCN2c2nc(C)cc(C(F)(F)F)c2C#N)c1, the viability, T/C was 73.4%.
On the same count and under the same terms, the same measure for `CCc1cc2c(N3CCc4c(cc(Cn5ccnc5)cc4-c4cn(C)nc4C(F)(F)F)C3=O)cc(C)nc2c(OC)n1` + Cc1cccc(N(C)C(=O)C2C(O)CCN2c2nc(C)cc(C(F)(F)F)c2C#N)c1: 85%; for `CCc1cc2c(N3CCc4c(cc(Cn5ccnc5)cc4-c4cn(C)nc4C(F)(F)F)C3=O)ccnc2c(OC)n1` + Cc1cccc(N(C)C(=O)C2C(O)CCN2c2nc(C)cc(C(F)(F)F)c2C#N)c1: 87.8%; for `COc1ccc([C@@H](O)c2cc(-c3ncnc4cc(N5CCOCC5)ccc34)c(F)cc2Cl)nn1` + Cc1cccc(N(C)C(=O)C2C(O)CCN2c2nc(C)cc(C(F)(F)F)c2C#N)c1: 82.3%.

The same assay, now with this note: second compound 1 µM; first compound 3.16 µM; hits give low values.
As to `C=CC(=O)N1CCN(c2nc(=O)n(-c3c(C)ccnc3C(C)C)c3nc(-c4c(O)cccc4F)c(F)cc23)C(C)C1` (stereo unspecified) + Cc1cccc(N(C)C(=O)C2C(O)CCN2c2nc(C)cc(C(F)(F)F)c2C#N)c1, the viability, T/C was 103%.
Take `CC(C)n1c(=O)n(C)c2cnc3cc(F)c(-c4ccc(OCCCN5CCCCC5)nc4)cc3c21` + Cc1cccc(N(C)C(=O)C2C(O)CCN2c2nc(C)cc(C(F)(F)F)c2C#N)c1: the viability, T/C was 75.6%.
Same read-out and setting: in the case of `CCc1cc2c(N3CCc4c(cc(Cn5ccnc5)cc4-c4cn(C)nc4C(F)(F)F)C3=O)cc(C)nc2c(OC)n1` + Cc1cccc(N(C)C(=O)C2C(O)CCN2c2nc(C)cc(C(F)(F)F)c2C#N)c1 it was 74.3%.
Still for that read-out and setting: the same measure for `CCc1cc2c(N3CCc4c(cc(Cn5ccnc5)cc4-c4cn(C)nc4C(F)(F)F)C3=O)ccnc2c(OC)n1` + Cc1cccc(N(C)C(=O)C2C(O)CCN2c2nc(C)cc(C(F)(F)F)c2C#N)c1: 86.7%; for `COc1ccc([C@@H](O)c2cc(-c3ncnc4cc(N5CCOCC5)ccc34)c(F)cc2Cl)nn1` + Cc1cccc(N(C)C(=O)C2C(O)CCN2c2nc(C)cc(C(F)(F)F)c2C#N)c1: 51.9%.

The assay is the same for the next values; noted with them: second compound 1 µM; first compound 10 µM; hits give low values.
Consider `C=CC(=O)N1CCN(c2nc(=O)n(-c3c(C)ccnc3C(C)C)c3nc(-c4c(O)cccc4F)c(F)cc23)C(C)C1` (stereo unspecified) + Cc1cccc(N(C)C(=O)C2C(O)CCN2c2nc(C)cc(C(F)(F)F)c2C#N)c1, for which the viability, T/C is 104%.
Turning to `CC(C)n1c(=O)n(C)c2cnc3cc(F)c(-c4ccc(OCCCN5CCCCC5)nc4)cc3c21` + Cc1cccc(N(C)C(=O)C2C(O)CCN2c2nc(C)cc(C(F)(F)F)c2C#N)c1, the viability, T/C was 62.6%.
The same measure, in the same setting: the same measure for `CCc1cc2c(N3CCc4c(cc(Cn5ccnc5)cc4-c4cn(C)nc4C(F)(F)F)C3=O)cc(C)nc2c(OC)n1` + Cc1cccc(N(C)C(=O)C2C(O)CCN2c2nc(C)cc(C(F)(F)F)c2C#N)c1: 44.1%; for `CCc1cc2c(N3CCc4c(cc(Cn5ccnc5)cc4-c4cn(C)nc4C(F)(F)F)C3=O)ccnc2c(OC)n1` + Cc1cccc(N(C)C(=O)C2C(O)CCN2c2nc(C)cc(C(F)(F)F)c2C#N)c1: 56.6%; for `COc1ccc([C@@H](O)c2cc(-c3ncnc4cc(N5CCOCC5)ccc34)c(F)cc2Cl)nn1` + Cc1cccc(N(C)C(=O)C2C(O)CCN2c2nc(C)cc(C(F)(F)F)c2C#N)c1: 9.82%.

The same assay, now with this note: second compound 3.16 µM; first compound 0.0316 µM; hits give low values.
With `C=CC(=O)N1CCN(c2nc(=O)n(-c3c(C)ccnc3C(C)C)c3nc(-c4c(O)cccc4F)c(F)cc23)C(C)C1` (stereo unspecified) + Cc1cccc(N(C)C(=O)C2C(O)CCN2c2nc(C)cc(C(F)(F)F)c2C#N)c1, the viability, T/C is 95.5%.
With `CC(C)n1c(=O)n(C)c2cnc3cc(F)c(-c4ccc(OCCCN5CCCCC5)nc4)cc3c21` + Cc1cccc(N(C)C(=O)C2C(O)CCN2c2nc(C)cc(C(F)(F)F)c2C#N)c1, the viability, T/C was 89.2%.
The same measure, in the same setting: in the case of `CCc1cc2c(N3CCc4c(cc(Cn5ccnc5)cc4-c4cn(C)nc4C(F)(F)F)C3=O)cc(C)nc2c(OC)n1` + Cc1cccc(N(C)C(=O)C2C(O)CCN2c2nc(C)cc(C(F)(F)F)c2C#N)c1 it was 105%.
Regarding `CCc1cc2c(N3CCc4c(cc(Cn5ccnc5)cc4-c4cn(C)nc4C(F)(F)F)C3=O)ccnc2c(OC)n1` + Cc1cccc(N(C)C(=O)C2C(O)CCN2c2nc(C)cc(C(F)(F)F)c2C#N)c1, the viability, T/C is 104%.
Same read-out and setting: in the case of `COc1ccc([C@@H](O)c2cc(-c3ncnc4cc(N5CCOCC5)ccc34)c(F)cc2Cl)nn1` + Cc1cccc(N(C)C(=O)C2C(O)CCN2c2nc(C)cc(C(F)(F)F)c2C#N)c1 it was 99.5%.

The same assay, now with this note: second compound 3.16 µM; first compound 0.1 µM; hits give low values.
`C=CC(=O)N1CCN(c2nc(=O)n(-c3c(C)ccnc3C(C)C)c3nc(-c4c(O)cccc4F)c(F)cc23)C(C)C1` (stereo unspecified) + Cc1cccc(N(C)C(=O)C2C(O)CCN2c2nc(C)cc(C(F)(F)F)c2C#N)c1: the viability, T/C is 88%.
Same read-out and setting: the same measure for `CC(C)n1c(=O)n(C)c2cnc3cc(F)c(-c4ccc(OCCCN5CCCCC5)nc4)cc3c21` + Cc1cccc(N(C)C(=O)C2C(O)CCN2c2nc(C)cc(C(F)(F)F)c2C#N)c1: 108%.
